The results in this text go back to ChEMBL document CHEMBL5325462, “Regioselective synthesis and in vitro cytotoxicity evaluation of 3-thiooxindole derivatives: Tubulin polymerization inhibition and apoptosis inducing studies” (Bioorg Med Chem, 2023).

The source made the active and inactive calls. The rule behind the calls is not given here.

The subject of test [1] is HCT-116. Put plainly: Induction of morphological changes in human HCT-116 cells assessed as cell nucleus shrinkage at 3.32 to 13.28 uM measured after 48 hrs by phase contrast microscope. The conditions noted are these: dose 3.32-13.28 µM. The format is functional, cell-based.
In test [2] the test system is HCT-116. Put plainly: Cell cycle arrest in human HCT-116 cells assessed as accumulation of cells in sub-G1 phase at 13.28 uM measured after 48 hrs by PI staining based flow cytometry method (reference value: 4.6%). The format is functional. In general terms: A flow cytometer gives signals particle by particle.
Test [3] deals with MCF7. The test can be described thus: Cytotoxicity against human MCF7 cells assessed as inhibition of cell growth measured after 72 hrs by MTT assay. The format is functional, cell-based. The conditions noted are these: MCF7, 72 h. In general terms: Tetrazolium assays rely on reduction of a dye to a coloured formazan, in cell work by metabolically active cells.
Test [4] relates to HCT-116. Put plainly: Induction of apoptosis in human HCT-116 cells assessed as late apoptotic cells at 6.64 uM incubated for 24 hrs by Annexin V-FITC/PI staining based flow cytometry analysis (Rvb= 0.1%). The format is functional.
The test system of test [5] is HCT-116. The test can be described thus: Induction of nuclear morphological changes in human HCT-116 cells assessed as change in nuclear condensation measured after 48 hrs by DAPI-staining based fluorescence microscopic analysis. The format is functional, cell-based.
The test system of test [6] is HCT-116. Put plainly: Induction of morphological changes in human HCT-116 cells assessed as formation of apoptotic bodies incubated for 24 hrs by acridine orange/ethidium bromide staining based fluorescence microscopic analysis. The class given is functional, cell-based.
The subject of test [7] is HCT-116. The test can be described thus: Induction of morphological changes in human HCT-116 cells assessed as cell detachment at 3.32 to 13.28 uM measured after 48 hrs by phase contrast microscope. The class given is functional, cell-based. The conditions noted are these: dose 3.32-13.28 µM.
For test [8], the system named is HCT-116. The test can be described thus: Cell cycle arrest in human HCT-116 cells assessed as accumulation of cells in S phase at 13.28 uM measured after 48 hrs by PI staining based flow cytometry method (reference value: 8.8%). The format is functional.
Test [9] concerns HCT-116. The test can be described thus: Cell cycle arrest in human HCT-116 cells assessed as accumulation of cells in G2/M phase at 13.28 uM measured after 48 hrs by PI staining based flow cytometry method (reference value: 6.7%). The class given is functional.
For test [10], the system named is HCT-116. The test can be described thus: Cell cycle arrest in human HCT-116 cells assessed as accumulation of cells in sub-G1 phase at 3.32 uM measured after 48 hrs by PI staining based flow cytometry method (reference value: 4.6%). The class given is functional.
In test [11] the test system is SK-MEL-28. Put plainly: Cytotoxicity against human SK-MEL-28 cells assessed as inhibition of cell growth measured after 72 hrs by MTT assay. The format is functional, cell-based. The conditions noted are these: SK-MEL-28, 72 h.
Test [12] deals with HCT-116. Put plainly: Induction of apoptosis in human HCT-116 cells assessed as early apoptotic cells at 13.28 uM incubated for 24 hrs by Annexin V-FITC/PI staining based flow cytometry analysis (Rvb= 0.2%). The format is functional.
The test system of test [13] is HCT-116. Put plainly: Cell cycle arrest in human HCT-116 cells assessed as accumulation of cells in G2/M phase at 6.64 uM measured after 48 hrs by PI staining based flow cytometry method (reference value: 6.7%). The format is functional.
Test [14] deals with HCT-116. The test can be described thus: Cell cycle arrest in human HCT-116 cells assessed as accumulation of cells in G2/M phase at 3.32 uM measured after 48 hrs by PI staining based flow cytometry method (reference value: 6.7%). The format is functional.

`CC(C)(C)S(=O)(=O)NCC1(Sc2nc3ccccc3[nH]2)C(=O)N(Cc2ccc(Br)cc2)c2ccccc21` (centres undefined): the result in test [1] and in [7] was Active. The Activity is 32.3% in test [2]; 58.4% in test [4]; “Dose-Dependent Effect” in test [5]; “Dose-Dependent Effect” in test [6]; 8.6% in test [8]; 18.4% in [9]. For the same molecule, the Activity was 24.4% in test [10], 8.9% in [12], 13.3% in test [13] and 11.8% in test [14]. In addition, the figures for the IC50 in test [3] and in [11] were 12.8 µM and 15.3 µM, respectively.
